Data from patent EP4803094A2, “GLP-1/GIP DUAL, GLP-1/GCG DUAL AND GLP-1/GIP/GCG TRIPLE RECEPTOR AGONISTS” (Sun Pharmaceutical Industries Limited, priority 2023, dated 2024).
Marks after values point to notes of the source that are not given here.

Key:
Assay type in all cases: in vivo
[1] = test system: Type 2 diabetes mouse (db/db) model; test: Efficacy study in db/db mice (blood glucose, body weight, food consumption); details: 10 nM/kg s.c. single dose, mean (n=6)
Protocol: The effect of the compounds as described herein on blood glucose, food intake and body weight were studied in mice. This study was performed in Type 2 diabetes mouse (db/db) model. The animals were divided into 9 treatment groups (n=6): a diabetic control group, Compound 12 (10 nM/kg), Compound 13 (10 nM/kg), Compound 26 (10 nM/kg), Compound 14 (10 nM/kg), Compound 15 (10 nM/kg), Compound 21 (10 nM/kg), Compound 22 (10 nM/kg), and Tirzepatide (10 nM/kg). Baseline blood glucose was measured from all the animals. All the animals were administered with test item subcutaneously. Blood glucose was measured at 4 hr, 8 hr, 12 hr, 24 hr, 48 hr, 72 hr, and 96 hr post treatment. Delta blood glucose (mM) was calculated. Body weight changes and cumulative food consumption were measured at 48 hr and 96 hr post treatment. Table 3. Effect on Blood Glucose

[2] = test system: Rats; test: Oral Glucose Tolerance Test (OGTT) in rats, single injection (blood glucose AUC, body weight, food consumption); details: 30 nM/kg s.c., mean (n=4); for Body weight change (%): 24 hr
[3] = test system: Rats; test: as above; details: for Food Consumption (g) / Body weight change (%): 30 nM/kg s.c.; for Food Consumption (g): 0-12 hr; for Food Consumption (g) / Body weight change (%) / Blood Glucose AUC(0-120min) Mean: mean (n=4); for Blood Glucose AUC(0-120min) Mean: OGTT 2 g/kg glucose orally, 24 hr post subcutaneous injection of 30 nM/kg; for % Change in Blood glucose AUC(0-120min) vs placebo control: OGTT 24 hr post subcutaneous injection of 30 nM/kg
Protocol: Animals were divided into 6 groups (n=4/group): a placebo control group, Compound 17, (30 nM/kg), Compound 18 (30 nM/kg), Compound 19 (30 nM/kg), Compound 20 (30 nM/kg), and Retatrutide (30 nM/kg). Animals were fasted for 12 hours before initiation of OGTT. After 24 hours of subcutaneous injection of tests or Retatrutide, blood glucose was measured with blood glucometer (time 0 measurement). All the animals were given 2 g/kg of glucose solution orally. Blood glucose was measured at 10, 20, 40, 60, 90, and 120 min following glucose challenge. Body weight and food consumption were recorded at 12 hr, 48 hr and 72 hr.

Compound: CCCC[C@H](NC(=O)[C@@H](NC(=O)[C@H](CO)NC(=O)[C@H](Cc1ccc(O)cc1)NC(=O)[C@H](CC(=O)O)NC(=O)[C@H](CO)NC(=O)[C@@H](NC(=O)[C@H](Cc1ccccc1)NC(=O)[C@@H](NC(=O)CNC(=O)[C@H](CCC(N)=O)NC(=O)C(C)(C)NC(=O)[C@@H](N)Cc1ccc(O)cc1)[C@@H](C)O)[C@@H](C)O)[C@@H](C)CC)C(=O)N[C@@H](CC(C)C)C(=O)N[C@@H](CC(=O)O)C(=O)N[C@@H](CCCCN)C(=O)N[C@@H](CCCCNC(=O)COCCOCCNC(=O)C(C)(C)NC(=O)CC[C@H](NC(=O)CCCCCCCCCCCCCCCCCCC(=O)O)C(=O)O)C(=O)N[C@@H](C)C(=O)N[C@@H](CCC(N)=O)C(=O)NC(C)(C)C(=O)N[C@@H](C)C(=O)N[C@@H](Cc1ccccc1)C(=O)N[C@H](C(=O)N[C@@H](CCC(=O)O)C(=O)N[C@@H](Cc1ccc(O)cc1)C(=O)N[C@@H](CC(C)C)C(=O)N[C@@H](CC(C)C)C(=O)N[C@@H](CCC(=O)O)C(=O)NCC(=O)NCC(=O)N1CCC[C@H]1C(=O)N[C@@H](CO)C(=O)N[C@@H](CO)C(=O)NCC(=O)N[C@@H](C)C(=O)N1CCC[C@H]1C(=O)N1CCC[C@H]1C(=O)N1CCC[C@H]1C(=O)N[C@@H](CO)C(N)=O)[C@@H](C)CC [Compound 14]
- Cumulative Food Consumption (g) 0-48 hr [1]: 3.0*** g
- Cumulative Food Consumption (g) 0-96 hr [1]: 8.3*** g
- Delta Blood Glucose ([1]; 4 hr post treatment): -3.8 mM
- Delta Blood Glucose ([1]; 8 hr post treatment): -3.1 mM
- Delta Blood Glucose ([1]; 12 hr post treatment): -6.2 mM
- Delta Blood Glucose (mM) ([1]; 24 hr post treatment): -9.2** mM
- Delta Blood Glucose (mM) ([1]; 48 hr post treatment): -9.3* mM
- Body Weight Change (%) 48 hr [1]: -8.8*** %
- Delta Blood Glucose ([1]; 72 hr post treatment): -7 mM
- Delta Blood Glucose ([1]; 96 hr post treatment): -2.6 mM
- Body Weight Change (%) 96 hr [1]: -7.1*** %

Compound: CC[C@H](C)[C@H](NC(=O)[C@H](Cc1ccccc1)NC(=O)[C@H](C)NC(=O)C(C)(C)NC(=O)[C@H](CCC(N)=O)NC(=O)[C@H](C)NC(=O)[C@H](CCCCNC(=O)COCCOCCNC(=O)NCCCCNC(=O)CC[C@H](NC(=O)CCCCCCCCCCCCCCCCCCC(=O)O)C(=O)O)NC(=O)[C@H](CCCCN)NC(=O)[C@H](CC(=O)O)NC(=O)[C@H](CC(C)C)NC(=O)[C@](C)(CC(C)C)NC(=O)[C@@H](NC(=O)[C@H](CO)NC(=O)[C@H](Cc1ccc(O)cc1)NC(=O)[C@H](CC(=O)O)NC(=O)[C@H](CO)NC(=O)[C@@H](NC(=O)[C@H](Cc1ccccc1)NC(=O)[C@@H](NC(=O)CNC(=O)[C@H](CCC(N)=O)NC(=O)C(C)(C)NC(=O)[C@@H](N)Cc1ccc(O)cc1)[C@@H](C)O)[C@@H](C)O)[C@@H](C)CC)C(=O)N[C@@H](CCC(=O)O)C(=O)N[C@@H](Cc1ccc(O)cc1)C(=O)N[C@@H](CC(C)C)C(=O)N[C@@H](CC(C)C)C(=O)N[C@@H](CCC(=O)O)C(=O)NCC(=O)NCC(=O)N1CCC[C@H]1C(=O)N[C@@H](CO)C(=O)N[C@@H](CO)C(=O)NCC(=O)N[C@@H](C)C(=O)N1CCC[C@H]1C(=O)N1CCC[C@H]1C(=O)N1CCC[C@H]1C(=O)N[C@@H](CO)C(N)=O [Compound 20]
- Food Consumption (g) ([2]; 24-48 hr): 12.8*** g
- Food Consumption (g) ([2]; 24-72 hr): 33.1*** g
- Body weight change (%) [2]: -6.0*** %
- Food Consumption (g) [3]: 1.6*** g
- Body weight change (%) ([3]; 48 hr): -4.6*** %
- Body weight change (%) ([3]; 72 hr): -2.7*** %
- Blood Glucose AUC(0-120min) Mean [3]: 4472.5***
- % Change in Blood glucose AUC(0-120min) vs placebo control [3]: -53.76%

Compound: CC[C@H](C)[C@H](NC(=O)[C@H](Cc1ccccc1)NC(=O)[C@H](C)NC(=O)C(C)(C)NC(=O)[C@H](CCC(N)=O)NC(=O)[C@H](C)NC(=O)[C@H](CCCCNC(=O)COCCOCCNC(=O)CC[C@H](NC(=O)CCCCCCCCCCCCCCCCCCC(=O)O)C(=O)O)NC(=O)[C@H](CCCCN)NC(=O)[C@H](CC(=O)O)NC(=O)[C@H](CC(C)C)NC(=O)[C@](C)(CC(C)C)NC(=O)[C@@H](NC(=O)[C@H](CO)NC(=O)[C@H](Cc1ccc(O)cc1)NC(=O)[C@H](CC(=O)O)NC(=O)[C@H](CO)NC(=O)[C@@H](NC(=O)[C@H](Cc1ccccc1)NC(=O)[C@@H](NC(=O)CNC(=O)[C@H](CCC(N)=O)NC(=O)C(C)(C)NC(=O)[C@@H](N)Cc1ccc(O)cc1)[C@@H](C)O)[C@@H](C)O)[C@@H](C)CC)C(=O)N[C@@H](CCC(=O)O)C(=O)N[C@@H](Cc1ccc(O)cc1)C(=O)N[C@@H](CC(C)C)C(=O)N[C@@H](CC(C)C)C(=O)N[C@@H](CCC(=O)O)C(=O)NCC(=O)NCC(=O)N1CCC[C@H]1C(=O)N[C@@H](CO)C(=O)N[C@@H](CO)C(=O)NCC(=O)N[C@@H](C)C(=O)N1CCC[C@H]1C(=O)N1CCC[C@H]1C(=O)N1CCC[C@H]1C(=O)N[C@@H](CO)C(N)=O [Retatrutide, reference compound]
- Food Consumption (g) ([2]; 24-48 hr): 8.6*** g
- Food Consumption (g) ([2]; 24-72 hr): 23.8*** g
- Body weight change (%) [2]: -6.0*** %
- Food Consumption (g) [3]: 0.7*** g
- Body weight change (%) ([3]; 48 hr): -4.5*** %
- Body weight change (%) ([3]; 72 hr): -2.5*** %
- Blood Glucose AUC(0-120min) Mean [3]: 3792.5***
- % Change in Blood glucose AUC(0-120min) vs placebo control [3]: -60.79%

Compound: CC[C@H](C)[C@H](NC(=O)[C@H](Cc1ccccc1)NC(=O)[C@H](C)NC(=O)C(C)(C)NC(=O)[C@H](CCC(N)=O)NC(=O)[C@H](C)NC(=O)[C@H](CCCCNC(=O)COCCOCCNC(=O)NCCCCNC(=O)CC[C@H](NC(=O)CCCCCCCCCCCCCCCCC(=O)O)C(=O)O)NC(=O)[C@H](CCCCN)NC(=O)[C@H](CC(=O)O)NC(=O)[C@H](CC(C)C)NC(=O)[C@](C)(CC(C)C)NC(=O)[C@@H](NC(=O)[C@H](CO)NC(=O)[C@H](Cc1ccc(O)cc1)NC(=O)[C@H](CC(=O)O)NC(=O)[C@H](CO)NC(=O)[C@@H](NC(=O)[C@H](Cc1ccccc1)NC(=O)[C@@H](NC(=O)CNC(=O)[C@H](CCC(N)=O)NC(=O)C(C)(C)NC(=O)[C@@H](N)Cc1ccc(O)cc1)[C@@H](C)O)[C@@H](C)O)[C@@H](C)CC)C(=O)N[C@@H](CCC(=O)O)C(=O)N[C@@H](Cc1ccc(O)cc1)C(=O)N[C@@H](CC(C)C)C(=O)N[C@@H](CC(C)C)C(=O)N[C@@H](CCC(=O)O)C(=O)NCC(=O)NCC(=O)N1CCC[C@H]1C(=O)N[C@@H](CO)C(=O)N[C@@H](CO)C(=O)NCC(=O)N[C@@H](C)C(=O)N1CCC[C@H]1C(=O)N1CCC[C@H]1C(=O)N1CCC[C@H]1C(=O)N[C@@H](CO)C(N)=O [Compound 19]
- Food Consumption (g) ([2]; 24-48 hr): 7.2*** g
- Food Consumption (g) ([2]; 24-72 hr): 17.0*** g
- Body weight change (%) [2]: -6.3*** %
- Food Consumption (g) [3]: 1.3*** g
- Body weight change (%) ([3]; 48 hr): -4.9*** %
- Body weight change (%) ([3]; 72 hr): -2.6*** %
- Blood Glucose AUC(0-120min) Mean [3]: 3848.8***
- % Change in Blood glucose AUC(0-120min) vs placebo control [3]: -60.20%

Compound: CC[C@H](C)[C@H](NC(=O)[C@H](Cc1ccccc1)NC(=O)[C@H](C)NC(=O)C(C)(C)NC(=O)[C@H](CCC(N)=O)NC(=O)[C@H](C)NC(=O)[C@H](CCCCNC(=O)COCCOCCNC(=O)C(C)(C)NC(=O)CC[C@H](NC(=O)CCCCCCCCCCCCCCCCC(=O)O)C(=O)O)NC(=O)[C@H](CCCCN)NC(=O)[C@H](CC(=O)O)NC(=O)[C@H](CC(C)C)NC(=O)[C@](C)(CC(C)C)NC(=O)[C@@H](NC(=O)[C@H](CO)NC(=O)[C@H](Cc1ccc(O)cc1)NC(=O)[C@H](CC(=O)O)NC(=O)[C@H](CO)NC(=O)[C@@H](NC(=O)[C@H](Cc1ccccc1)NC(=O)[C@@H](NC(=O)CNC(=O)[C@H](CCC(N)=O)NC(=O)C(C)(C)NC(=O)[C@@H](N)Cc1ccc(O)cc1)[C@@H](C)O)[C@@H](C)O)[C@@H](C)CC)C(=O)N[C@@H](CCC(=O)O)C(=O)N[C@@H](Cc1ccc(O)cc1)C(=O)N[C@@H](CC(C)C)C(=O)N[C@@H](CC(C)C)C(=O)N[C@@H](CCC(=O)O)C(=O)NCC(=O)NCC(=O)N1CCC[C@H]1C(=O)N[C@@H](CO)C(=O)N[C@@H](CO)C(=O)NCC(=O)N[C@@H](C)C(=O)N1CCC[C@H]1C(=O)N1CCC[C@H]1C(=O)N1CCC[C@H]1C(=O)N[C@@H](CO)C(N)=O [Compound 12]
- Cumulative Food Consumption (g) 0-48 hr [1]: 3.1*** g
- Cumulative Food Consumption (g) 0-96 hr [1]: 10.9*** g
- Delta Blood Glucose ([1]; 4 hr post treatment): -3.2 mM
- Delta Blood Glucose (mM) ([1]; 8 hr post treatment): -8.9* mM
- Delta Blood Glucose (mM) ([1]; 12 hr post treatment): -13.2*** mM
- Delta Blood Glucose (mM) ([1]; 24 hr post treatment): -13.7*** mM
- Delta Blood Glucose (mM) ([1]; 48 hr post treatment): -11.4*** mM
- Body Weight Change (%) 48 hr [1]: -8.0*** %
- Delta Blood Glucose (mM) ([1]; 72 hr post treatment): -9.2** mM
- Delta Blood Glucose ([1]; 96 hr post treatment): -6.4 mM
- Body Weight Change (%) 96 hr [1]: -3.7*** %
